According to ChEMBL document CHEMBL3593223, “Neolignans with a Rare 2-Oxaspiro[4.5]deca-6,9-dien-8-one Motif from the Stem Bark of Cinnamomum subavenium” (J Nat Prod, 2015):

Columns and labels:
[1] = Cytotoxicity against mouse RAW264.7 cells assessed as survival rate at 200 uM after 48 hrs by MTT assay in presence of LPS relative to control; assay type: cell-based; conditions: read-out: Survival
RAW264.7 = assay: Antiinflammatory activity in mouse RAW264.7 cells assessed as inhibition of LPS-induced nitric oxide production after 24 hrs by Griess assay; assay type: functional, cell-based; conditions: RAW264.7, 24 h
[2] = Cytotoxicity against mouse RAW264.7 cells assessed as survival rate at 200 uM after 48 hrs by MTT assay in absence of LPS relative to control; assay type: cell-based; conditions: read-out: Survival

Compound | viability at 48 h, 200 µM [1] [%] | IC50 (RAW264.7) [µM] | viability at 48 h, 200 µM [2] [%]
COC1=CC2(C=C(OC)C1=O)[C@@H](CO)[C@H](c1cc(OC)c(O)c(OC)c1)O[C@H]2[C@H](O)CO | 111 | 4.3 | 102
COC1=CC2(C=C(OC)C1=O)[C@H](CO)[C@@H](c1ccc(O)c(OC)c1)O[C@@H]2[C@@H](O)CO | 104 | 17.9 | 98
COC1=CC2(C=C(OC)C1=O)[C@@H](CO)[C@H](c1ccc(O)c(OC)c1)O[C@H]2[C@H](O)CO | 90 | 5.6 | 99
COC1=CC2(C=C(OC)C1=O)[C@H](CO)[C@@H](c1cc(OC)c(O)c(OC)c1)O[C@@H]2[C@@H](O)CO | 109 | 15.1 | 101
C[C@@H]1C[C@H]2[C@@H]3CCC4=CC(=O)C=C[C@]4(C)[C@@]3(F)[C@@H](O)C[C@]2(C)[C@@]1(O)C(=O)CO [DEXAMETHASONE] | 100 | 0.63 | 91
